Assay results from patent US20260125359A1, “HETEROARYL COMPOUNDS AS MULTI-TARGET PROTEIN KINASE INHIBITORS” (FUJIAN HAIXI PHARMACEUTICALS CO., LTD., priority 2023, published 2026).

Assays:
CSF-1R = CSF-1R (Homo sapiens, UniProt P07333); test: CSF-1R in vitro kinase activity assay (HTRF kinEASE TK); assay type: biochemical; conditions: for inhibition at 0.01 µM: compound 10 nM, read-out: CSF-1R inhibition rate, 10 nM; for inhibition at 0.1 µM: compound 100 nM, read-out: CSF-1R inhibition rate, 100 nM
From the text: (§1) CSF-1R, PDGFR-α, KDR (VEGFR2) and KIT in vitro Kinase Activity Assay:
(§2) • ENVISION (Perkinelmer, 2104) • White 384-well MicroPlate (Cat #264706, Nunc) • HTRF kinEASE TK kit main reagents (Cat #62TKOPEC, Cisbio) • TK-biotin substrate • Streptavidin-XL665 • TK Antibody-Cryptate • 5× Enzymatic buffer (5×KB) • Staphylococcal enterotoxin B (SEB) • HTRF Detection buffer • CSF-1R (Cat #PV3249, Invitrogen) • PDGFR-α (Cat #PV3811, Invitrogen) • KDR (Cat #PV3660, Invitrogen) • KIT (Cat #08-156, Carna) • ATP 10 mM (Cat #PV3227, Invitrogen) • DTT 1 M (Cat #D5545, Sigma) • MgCl2 1 M (Cat #M8266, Sigma) • MnCl2 1 M (Cat #244589, Sigma)
(§3) Dilute Substrate-TK and ATP to 5× of the reaction concentration using 1× Kinase Buffer.
(§4) Prepare the 5× enzyme working solution using 1× Kinase Buffer.
(§5) Prepare the 4×Sa-XL665 working solution using Detection Buffer.
(§6) Dilute TK-Ab-Cryptate 100 times using Detection Buffer to prepare the working solution.
(§7) After all reagents were prepared according to the methods described above, except for the enzyme, they were equilibrated to room temperature before starting the sample addition. • a) First, 2.5% DMSO solutions were prepared separately using the pre-prepared 1× kinase buffer (DMSO concentrations that were too high could affect the reaction, so the final concentration of DMSO was controlled at 1%). Then, the corresponding 2.5% DMSO solution for the enzyme was used to dilute the test compounds. Compounds were screened with two concentrations of 100 nM and 10 nM. Except for the control wells, 4 μL of the diluted test compound solution was added to the reaction wells, and 4 μL of the pre-prepared 2.5% DMSO solution was added to the control wells. • b) 2 μL of the pre-prepared TK-biotin substrate solution at the corresponding concentration for the kinase was added to all reaction wells. • c) 2 μL of the pre-prepared enzyme solution at the corresponding concentration was added to all reaction wells except the negative control wells. For the negative control wells, 2 μL of 1× kinase buffer corresponding to the enzyme was added to make up the volume. The plate was sealed with sealing film, mixed gently, and incubated at room temperature for 10 min to allow the compounds to fully interact with the enzyme. • d) 2 μL of the ATP solution at the corresponding concentration for the enzyme was added to all reaction wells to initiate the kinase reaction. ATP concentrations and reaction times for enzyme screening are shown in Table 26 • e) Five minutes before the end of the kinase reaction, the detection solution was prepared. The detection buffer from the kit was used to prepare detection solutions for Streptavidin-XL665 and TK antibody europium cryptate (1:100) at the appropriate concentrations for the two enzymes. • f) After the kinase reaction was completed, 5 μL of the diluted Streptavidin-XL665 solution was added to all reaction wells. After mixing, the diluted TK antibody europium cryptate detection solution was immediately added. • g) The plate was sealed and mixed, incubated at room temperature for 1 hour, and the fluorescence signal was detected using the ENVISION (PerkinElmer) instrument (excitation at 320 nm, emission at 665 nm and 615 nm). The inhibition rate for each well was calculated based on the full-activity control wells and background signal wells, and the average value of the replicates was taken.

KDR (VEGFR2) = KDR (VEGFR2) (Homo sapiens, UniProt P35968); test: KDR (VEGFR2) in vitro kinase activity assay (HTRF kinEASE TK); assay type: biochemical; conditions: for inhibition at 0.01 µM: compound 10 nM, read-out: VEGFR2 inhibition rate, 10 nM; for inhibition at 0.1 µM: compound 100 nM, read-out: VEGFR2 inhibition rate, 100 nM
From the text: as §1, §2, §3, §4, §5, §6, §7

DDR1 = DDR1 (Homo sapiens, UniProt Q08345); test: DDR1 in vitro kinase activity assay (LanthaScreen Eu-anti-GST antibody / Kinase Tracer 178); assay type: binding; conditions: for inhibition at 0.01 µM: compound 10 nM, read-out: DDR1 inhibition rate, 10 nM; for inhibition at 0.1 µM: compound 100 nM, read-out: DDR1 inhibition rate, 100 nM
Procedure: DDR1 in vitro Kinase Activity Assay:
• ENVISION (Perkinelmer, 2104) • White 384-well MicroPlate (Cat #264706, Nunc) • DDR1 (Cat #PV6047, Invitrogen) • 5× Kinase Buffer A (Cat #PV3189, Invitrogen) • Kinase Tracer 178 (Cat #PV5593, Invitrogen) • LanthaScreen® Eu-anti-GST Antibody (Cat #PV5594, Invitrogen)
The compounds to be tested were tested at two concentrations of 100 nM and 10 nM.
Kinase/Antibody Mixtures Preparation: Dilute Kinase/Antibody Mixtures with 1× Kinase Buffer to form 3× working solutions with final concentrations of 5 nM kinase and 2 nM Eu-Anti-GST Antibody, respectively.
Kinase Tracer 178 Preparation: Dilute Kinase Tracer 178 with 1× Kinase Buffer to make a 3× working solution with a final concentration of 10 nM.
After all reagents were prepared according to the methods described above, except for the enzyme, they were equilibrated to room temperature before starting the sample addition. • a) First, 3% DMSO solutions were prepared separately using the pre-prepared 1× kinase buffer (DMSO concentrations that were too high could affect the reaction, so the final concentration of DMSO was controlled at 1%). Then, the corresponding 3% DMSO solution for the enzyme was used to dilute the test compounds. Compounds were screened with two concentrations of 100 nM and 10 nM. Except for the control wells, 5 μL of the diluted test compound solution was added to the reaction wells, and 5 μL of the pre-prepared 3% DMSO solution was added to the control wells. • b) 5 μL of the pre-prepared Kinase/Antibody mixtures was added to all reaction wells except the negative control wells. For the negative control wells, 5 μL of 1× kinase buffer corresponding to the enzyme was added to make up the volume. • c) 5 μL of the pre-prepared Kinase Tracer 178 solution was added to all reaction wells. • d) The plate was sealed and mixed, incubated at room temperature for 1 hour, and the fluorescence signal was detected using the ENVISION (PerkinElmer) instrument (excitation at 340 nm, emission at 665 nm and 615 nm). The inhibition rate for each well was calculated based on the full-activity control wells and background signal wells, and the average value of the replicates was taken.

Sequence of CSF-1R (P07333 20-972): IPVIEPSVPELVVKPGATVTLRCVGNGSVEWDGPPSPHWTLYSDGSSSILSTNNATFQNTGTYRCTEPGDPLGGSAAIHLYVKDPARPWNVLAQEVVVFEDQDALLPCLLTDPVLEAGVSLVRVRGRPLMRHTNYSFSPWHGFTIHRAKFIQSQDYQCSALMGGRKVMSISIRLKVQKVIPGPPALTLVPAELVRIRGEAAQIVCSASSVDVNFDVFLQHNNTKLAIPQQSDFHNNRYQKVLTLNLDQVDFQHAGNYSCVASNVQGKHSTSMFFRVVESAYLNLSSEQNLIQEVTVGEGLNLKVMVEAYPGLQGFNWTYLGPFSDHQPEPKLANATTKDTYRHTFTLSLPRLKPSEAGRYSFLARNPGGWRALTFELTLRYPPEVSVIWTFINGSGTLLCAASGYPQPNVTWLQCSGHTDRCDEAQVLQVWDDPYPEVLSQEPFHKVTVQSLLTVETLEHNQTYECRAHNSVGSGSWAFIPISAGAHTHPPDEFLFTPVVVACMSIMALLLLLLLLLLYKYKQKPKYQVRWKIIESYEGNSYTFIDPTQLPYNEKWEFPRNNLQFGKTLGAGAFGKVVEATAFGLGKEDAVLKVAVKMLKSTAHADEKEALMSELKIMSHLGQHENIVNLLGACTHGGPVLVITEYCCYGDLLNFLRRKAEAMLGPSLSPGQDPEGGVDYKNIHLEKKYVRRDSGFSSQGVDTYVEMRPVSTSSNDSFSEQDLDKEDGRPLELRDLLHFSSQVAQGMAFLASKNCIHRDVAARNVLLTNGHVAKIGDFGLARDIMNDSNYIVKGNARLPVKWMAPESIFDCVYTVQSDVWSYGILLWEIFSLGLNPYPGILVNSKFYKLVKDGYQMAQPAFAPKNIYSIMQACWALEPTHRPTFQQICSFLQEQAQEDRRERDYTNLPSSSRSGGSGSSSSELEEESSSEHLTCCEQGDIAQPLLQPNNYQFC
Sequence of KDR (VEGFR2) (P35968 20-1356): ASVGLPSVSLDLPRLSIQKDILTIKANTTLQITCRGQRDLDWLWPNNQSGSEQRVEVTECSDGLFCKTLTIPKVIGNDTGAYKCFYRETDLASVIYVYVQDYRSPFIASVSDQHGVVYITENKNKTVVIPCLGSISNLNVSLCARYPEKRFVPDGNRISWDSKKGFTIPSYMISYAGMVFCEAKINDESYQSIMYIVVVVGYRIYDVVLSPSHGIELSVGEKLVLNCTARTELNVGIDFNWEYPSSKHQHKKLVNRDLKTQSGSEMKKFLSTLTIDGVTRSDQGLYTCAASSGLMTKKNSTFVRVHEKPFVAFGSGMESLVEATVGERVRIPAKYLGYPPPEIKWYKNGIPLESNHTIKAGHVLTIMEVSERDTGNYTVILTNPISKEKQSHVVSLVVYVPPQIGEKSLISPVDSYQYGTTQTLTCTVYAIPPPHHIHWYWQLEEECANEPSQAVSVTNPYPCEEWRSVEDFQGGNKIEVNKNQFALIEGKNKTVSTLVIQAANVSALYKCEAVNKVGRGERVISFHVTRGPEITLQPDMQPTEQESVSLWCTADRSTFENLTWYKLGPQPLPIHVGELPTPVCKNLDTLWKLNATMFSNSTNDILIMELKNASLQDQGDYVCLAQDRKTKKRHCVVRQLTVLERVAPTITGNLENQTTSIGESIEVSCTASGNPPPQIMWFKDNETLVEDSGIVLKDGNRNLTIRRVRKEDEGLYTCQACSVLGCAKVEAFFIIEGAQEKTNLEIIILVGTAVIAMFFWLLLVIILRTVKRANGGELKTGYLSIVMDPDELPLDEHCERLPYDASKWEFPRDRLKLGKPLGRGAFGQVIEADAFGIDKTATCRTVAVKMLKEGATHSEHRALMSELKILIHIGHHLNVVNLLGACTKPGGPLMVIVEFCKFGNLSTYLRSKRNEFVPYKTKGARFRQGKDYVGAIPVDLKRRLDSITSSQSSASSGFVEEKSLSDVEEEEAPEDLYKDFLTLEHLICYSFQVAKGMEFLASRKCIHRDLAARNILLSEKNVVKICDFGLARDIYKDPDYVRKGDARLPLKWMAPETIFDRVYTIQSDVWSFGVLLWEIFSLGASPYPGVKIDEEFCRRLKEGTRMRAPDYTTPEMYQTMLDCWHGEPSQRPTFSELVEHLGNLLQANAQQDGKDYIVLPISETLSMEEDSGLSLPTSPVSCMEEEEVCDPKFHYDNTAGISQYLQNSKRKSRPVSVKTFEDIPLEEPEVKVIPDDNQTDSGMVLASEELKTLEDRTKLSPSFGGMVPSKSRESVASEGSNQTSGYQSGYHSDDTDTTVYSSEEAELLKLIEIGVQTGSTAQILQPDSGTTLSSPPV
Sequence of DDR1 (Q08345 19-913): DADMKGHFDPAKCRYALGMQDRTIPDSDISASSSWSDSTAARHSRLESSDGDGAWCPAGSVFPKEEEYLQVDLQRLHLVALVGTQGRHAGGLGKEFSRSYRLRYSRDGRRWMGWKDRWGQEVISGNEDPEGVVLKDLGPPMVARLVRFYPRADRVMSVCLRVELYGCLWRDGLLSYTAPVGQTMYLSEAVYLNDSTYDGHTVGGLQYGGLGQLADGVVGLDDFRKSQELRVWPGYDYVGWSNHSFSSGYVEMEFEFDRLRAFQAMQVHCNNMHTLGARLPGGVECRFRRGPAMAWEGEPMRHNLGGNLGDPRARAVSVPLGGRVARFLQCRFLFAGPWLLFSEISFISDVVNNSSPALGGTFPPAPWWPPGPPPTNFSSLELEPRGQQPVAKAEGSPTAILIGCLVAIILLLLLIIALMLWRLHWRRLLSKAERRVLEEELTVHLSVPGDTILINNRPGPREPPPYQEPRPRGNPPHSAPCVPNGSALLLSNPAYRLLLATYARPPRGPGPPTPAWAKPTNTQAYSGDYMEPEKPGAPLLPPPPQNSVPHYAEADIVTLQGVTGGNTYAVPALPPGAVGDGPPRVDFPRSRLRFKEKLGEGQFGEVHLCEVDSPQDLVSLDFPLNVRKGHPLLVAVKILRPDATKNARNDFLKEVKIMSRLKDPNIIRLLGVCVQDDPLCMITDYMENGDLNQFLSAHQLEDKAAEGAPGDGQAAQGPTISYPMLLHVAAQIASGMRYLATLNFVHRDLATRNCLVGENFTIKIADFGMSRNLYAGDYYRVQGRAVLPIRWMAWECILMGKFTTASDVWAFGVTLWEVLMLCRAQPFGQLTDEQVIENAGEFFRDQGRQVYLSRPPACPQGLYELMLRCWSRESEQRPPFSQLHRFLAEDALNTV

inhibition at 0.01 µM (CSF-1R) [%]	inhibition at 0.1 µM (CSF-1R) [%]	inhibition at 0.01 µM (KDR (VEGFR2)) [%]	inhibition at 0.1 µM (KDR (VEGFR2)) [%]	inhibition at 0.01 µM (DDR1) [%]	inhibition at 0.1 µM (DDR1) [%]	SMILES
80.1	89.8	97.8	100	88.6	98.2	Cn1cc(-c2cnc(N)c(O[C@H]3CCc4c(C(=O)Nc5cccc(C6CC6)c5)cccc43)c2)cn1 [Compound 4, (S)-1-((2-amino-5-(1-methyl-1H-pyrazol-4-yl)pyridin-3-yl)oxy)-N-(3-cyclopropylphenyl)-2,3-dihydro-1H-indene-4-carboxamide]
79.9	93.5	95.3	99.5	90.2	95.1	Cc1cccc(NC(=O)c2cccc3c2CC[C@@H]3Nc2cncc(-c3cnn(C)c3)c2)c1 [Compound 13, (S)-1-((5-(1-methyl-1H-pyrazol-4-yl)pyridin-3-yl)amino)-N-(m-tolyl)-2,3-dihydro-1H-indene-4-carboxamide]
74.6	95.3	83.1	99.6	93.2	104	Cn1cc(-c2cncc(N[C@H]3CCc4c(C(=O)Nc5cncc(Cl)c5)cccc43)c2)cn1 [Compound 14aa, (S)—N-(5-chloropyridin-3-yl)-1-((5-(1-methyl-1H-pyrazol-4-yl)pyridin-3-yl)amino)-2,3-dihydro-1H-indene-4-carboxamide]
41	101	26.8	58.1	37.9	85.6	Cn1cc(-c2cncc(N[C@H]3CCc4c(C(=O)Nc5ccc(C(F)(F)F)nc5)cccc43)c2)cn1 [Compound 14ah]
63.5	96.7	14.7	66.2	75.8	100	CN1CCc2ccc(NC(=O)c3cccc4c3CC[C@@H]4Nc3cncc(-c4cnn(C)c4)c3)cc2C1 [Compound 14ap]
89.7	97	88.4	102	94.7	103	Cc1cncc(NC(=O)c2cccc3c2CC[C@@H]3Nc2cncc(-c3cnn(C)c3)c2)c1 [Compound 14as]
42.1	95.9	29.2	82.6	32.4	61.4	CN1CCc2nc(NC(=O)c3cccc4c3CC[C@@H]4Nc3cncc(-c4cnn(C)c4)c3)sc2C1 [Compound 14ba]
49	90.5	60	97.3	15.9	88	Cc1cccc(C(=O)Nc2cccc3c2CC[C@@H]3Oc2cncc(-c3cnn(C)c3)c2)c1 [Compound 15, (S)-3-methyl-N-(1-((5-(1-methyl-1H-pyrazol-4-yl)pyridin-3-yl)oxy)-2,3-dihydro-1H-inden-4-yl)benzamide]
79.4	100	92.3	101	69.4	102	Cn1cc(-c2cncc(O[C@H]3CCc4c(C(=O)Nc5cncc(Cl)c5)cccc43)c2)cn1 [Compound 19a, (S)—N-(5-chloropyridin-3-yl)-1-((5-(1-methyl-1H-pyrazol-4-yl)pyridin-3-yl)oxy)-2,3-dihydro-1H-indene-4-carboxamide]
71.9	97.4	93.6	102	84	105	Cn1cc(-c2cncc(O[C@H]3CCc4c(C(=O)Nc5cccc(C6CC6)c5)cccc43)c2)cn1 [Compound 19b]
27.5	95.4	22.7	88.9	23.1	53.5	CN1CCc2nc(NC(=O)c3cccc4c3CC[C@@H]4Oc3cncc(-c4cnn(C)c4)c3)sc2C1 [Compound 19f]
72	96.6	24.6	84.4	65.3	97.1	CN(C)Cc1cncc(NC(=O)c2cccc3c2CC[C@@H]3Oc2cncc(-c3cnn(C)c3)c2)c1 [Compound 19h]
80.1	101	91.7	102	86.1	96.7	Cc1cncc(NC(=O)c2cccc3c2CC[C@@H]3Oc2cncc(-c3cnn(C)c3)c2)c1 [Compound 19j]
57.6	97.4	53	99.1	81.4	89.9	Cc1cc(NC(=O)c2cccc3c2CC[C@@H]3Oc2cncc(-c3cnn(C)c3)c2)cc(C)n1 [Compound 19k, (S)—N-(2,6-dimethylpyridin-4-yl)-1-((5-(1-methyl-1H-pyrazol-4-yl)pyridin-3-yl)oxy)-2,3-dihydro-1H-indene-4-carboxamide]
48.6	100	22.3	62.6	29.7	88	CN(c1cncc(-c2cnn(C)c2)c1)[C@H]1CCc2c(C(=O)Nc3cncc(Cl)c3)cccc21 [Compound 21, (S)—N-(5-chloropyridin-3-yl)-1-(methyl (5-(1-methyl-1H-pyrazol-4-yl)pyridin-3-yl)amino)-2,3-dihydro-1H-indene-4-carboxamide]
